Test results taken from the NIST ThermoML archive (doi:10.1016/j.jct.2015.12.020).
Where “and” joins values, the source holds several entries; their conditions need not be identical. Equal entries are not always repeated. Numbers after ± are expanded uncertainties.

Assays:
[1] = molar enthalpy of vaporization or sublimation; settings: 298.15 K; Crystal; Static calorimetry
[2] = Crystal, Calculated from knudsen effusion weight loss

## Cc1n[nH]c(=O)[nH]c1=O [6-azathymine]
[1]
  molar enthalpy: 26.1 ± 0.55 kcal/mol

## O=c1cn[nH]c(=O)[nH]1 [6-azauracil]
[2]; 377.16 K
  vapor or sublimation pressure: 0.00012 ± 0.0001 kPa and 0.000109 ± 0.0001 kPa
[2]; 379.12 K
  vapor or sublimation pressure: 0.000138 ± 0.0001 kPa and 0.000142 ± 0.0001 kPa and 0.000131 ± 0.0001 kPa
[2]; 381.1 K
  vapor or sublimation pressure: 0.000167 ± 0.0001 kPa and 0.000164 ± 0.0001 kPa
[2]; 383.16 K
  vapor or sublimation pressure: 0.000205 ± 0.0001 kPa and 0.000198 ± 0.0001 kPa and 0.000227 ± 0.0001 kPa
[2]; 385.1 K
  vapor or sublimation pressure: 0.000252 ± 0.0001 kPa and 0.000229 ± 0.0001 kPa and 0.000269 ± 0.0001 kPa
[2]; 387.09 K
  vapor or sublimation pressure: 0.000301 ± 0.0001 kPa and 0.000282 ± 0.0001 kPa
[2]; 389.15 K
  vapor or sublimation pressure: 0.00037 ± 0.0001 kPa and 0.000355 ± 0.0001 kPa and 0.000413 ± 0.0001 kPa
[2]; 391.1 K
  vapor or sublimation pressure: 0.000452 ± 0.0001 kPa and 0.000422 ± 0.0001 kPa and 0.000477 ± 0.0001 kPa
[2]; 393.1 K
  vapor or sublimation pressure: 0.000538 ± 0.0001 kPa and 0.000515 ± 0.0001 kPa and 0.000575 ± 0.0001 kPa
[2]; 395.15 K
  vapor or sublimation pressure: 0.00061 ± 0.0001 kPa and 0.000596 ± 0.0001 kPa and 0.000684 ± 0.0001 kPa
[2]; 397.13 K
  vapor or sublimation pressure: 0.000756 ± 0.0001 kPa and 0.000711 ± 0.0001 kPa and 0.000812 ± 0.0001 kPa
[2]; 399.12 K
  vapor or sublimation pressure: 0.000901 ± 0.00011 kPa and 0.000859 ± 0.00011 kPa and 0.000945 ± 0.00011 kPa
[1]
  molar enthalpy: 28.2 ± 0.502 kcal/mol

## Cc1nnc(S)[nH]c1=O [6-aza-2-thiothymine]
[1]
  molar enthalpy: 28.7 ± 0.669 kcal/mol
